Laboratory results as given in patent US7351699B1, “Use of DHEA or precursors or metabolic derivatives thereof as a depigmenting agent” (L'Oreal, priority 1999, dated 2008).

Legend:
[1] = system: pigmentation marks on the skin (back of one hand); assay: Clinical evaluation of pigmentation marks (visual overall score 0 to 7 by an expert); format: in vivo; conditions: gelled oil-in-water emulsion with 1% by weight DHEA, applied morning and evening for four months to the back of one hand, 20 women 55 to 70 years old, score constant on untreated hand, FIG. 1
Protocol: (§1) A gelled oil-in-water emulsion, containing 1% by weight of DHEA as sole active agent, was tested on a group of 20 women from 55 to 70 years old. The emulsion was applied morning and evening for four months to the back of one hand.
The marks present on the skin were evaluated before and after treatment by visual observation made by an expert, giving the marks an overall score from 0 to 7 as a function of their number, their size and their intensity (clinical evaluation).

[2] = system: skin pigmentation (back of one hand); assay: Biophysical evaluation by colorimetry (Minolta CR200, parameter b*); format: in vivo; conditions: gelled oil-in-water emulsion with 1% by weight DHEA, applied morning and evening for four months to the back of one hand; 20 women 55 to 70 years old; decrease greater than on untreated hand; FIG. 2
Protocol: as §1
They were also evaluated by colorimetry, using a Minolta CR200 […] (biophysical evaluation). This apparatus describes the colors in a three-dimensional space, using the system of coordinates L, a* and b* recommended by the International Commission on Illumination, in which L* represents the luminance or clarity of the color ([…]), a* is the separation component between green (negative) and red (positive) and is correlated to the skin erythema, and b* varies from blue (negative) to yellow (positive) and represents the skin pigmentation. This parameter b* was used to evaluate the change in the marks in the course of the treatment. It is the result of the average of six individual measurements taken per zone and per measurement period.

## C[C@]12CC[C@H](O)CC1=CC[C@@H]1[C@@H]2CC[C@]2(C)C(=O)CC[C@@H]12 [DHEA, dehydroepiandrosterone]
[1]
  overall clinical score of the pigmentation marks: improvement in the overall clinical score
[2]
  component b of the color of the skin (skin pigmentation): decrease in the component b of the color of the skin
